Here are results for five compounds from US20200017496A1 (priority 2017, published 2020).

The term half-life denotes how long it takes for the measured level to halve. A lower half-life goes with fast loss. What is called solubility is the dissolved amount per volume that the medium holds. Lower therefore signals a poorly soluble substance.

Molecules are shown by their SMILES. Values after ≈ are worked out from the molar mass of the structure shown. Where only a bound is given, the exact number is not on record here.

Data set [1] in a line: Hydrolysis kinetics in buffers at 37° C., 4 μg/ml (LC-MS, Method 8). The format is physicochemical. As for the experimental part: (§1) Method 8: Hydrolysis Kinetics in Buffers or Plasma Samples at 37° C., 4 μg/ml (Table 9)
(§2) Test compounds were prepared in DMSO at 0.8 mg/ml (relative to the acid AF1). To obtain a concentration of 4 μg/ml, one microliter of test compounds or AF1 was dissolved in 199 μl of buffer or blank plasma. For test compounds, plasma samples and/or buffer samples were kept at 37° C. during 2 h, and 20 μL of mixture were collected at 0 minutes (before heating to 37° C.), 5 minutes, 10 minutes, 20 minutes, 30 minutes, 45 minutes, 60 minutes and 120 minutes. For AF1, 20 μl of plasma samples and/or buffer samples were collected at 0 minutes. All plasma samples were protein precipitated using 3-25 fold volume of acetonitrile, shaken and centrifuged for 20 minutes at 15 000×g, diluted with a varying volume of deionized water. All buffer samples were diluted with a varying volume of deionized water/acetonitrile. The formation of AF1 from test compounds was quantified using LC-MS/MS.

A further data set is described as follows: in vitro. In kind it is in vitro ADME. The note with it: plasma. As for the experimental part: as §1, §2
The nature of data set [2]: Hydrolysis kinetics in buffers at room temperature by 19F-NMR, 1 mg/ml (Method 9). The format is physicochemical. As for the experimental part:
Method 9: Hydrolysis Kinetics in Buffers at Room Temperature by ^19F-NMR, 1 mg/ml (Table 9)
Samples were prepared by solubilizing the ester compound (1 mg) in 900 μL of D2O and 100 μL of adequate buffer (Citrate 100 mM pH 5, Phosphate 100 mM pH 6 and Phosphate 100 mM pH 7.4). After a short sonication to fasten solubilization, the hydrolysis curve of the esters was generated by measuring and comparing the ^19F-NMR signal integrations of both species (ester compound disappearing and the acid form AF1 appearing). T10 and T50, times for respectively 10% and 50% of ester hydrolysis, were determined by interpolation of the hydrolysis curves.

A short description of data set [3]: Aqueous solubility by visual inspection (Method 12). The note with it: water, thermodynamic from solid.

Regarding `COCC(C)(C)OC(=O)C(F)(F)ON1C(=O)N2C[C@H]1CC[C@H]2C(N)=O` [Example 7, (2-methoxy-1,1-dimethyl-ethyl) 2-[[(2S,5R)-2-carbamoyl-7-oxo-1,6-diazabicyclo[3.2.1]octan-6-yl]oxy]-2,2-difluoro-acetate], the entries for the “Hydrolysis at 4 μg/ml at 37° C. (LC-MS) T50 (50% degradation time)” value (“Hydrolysis at 4 μg/ml … (50% degradation time)” below) in data set [1] (Citrate 10 mM pH 5.0) and in data set [1] (Phosphate 10 mM pH 7.4) were 109 min and 23 min, respectively. The half-life at 4 µg/ml in the data set “in vitro” (dog) was 4 min; in “in vitro” (human), 7 min; in the data set “in vitro” (mouse), less than 1 min; in “in vitro” (rat), less than 1 min. Besides, the “Hydrolysis at 1 mg/ml at room Temperature (NMR) T10 (10% degradation time)” value (“Hydrolysis at 1 mg/ml … (10% degradation time)” below) in data set [2] (Citrate 10 mM pH 5.0) was determined as 210 min; in data set [2] (Phosphate 10 mM pH 6.0), 120 min; in data set [2] (Phosphate 10 mM pH 7.4) it was 37 min. Further, the “Hydrolysis at 1 mg/ml at room Temperature (NMR) T50 (50% degradation time)” value (“Hydrolysis at 1 mg/ml … (50% degradation time)” below) is listed as 27 h in data set [2] (Citrate 10 mM pH 5.0), 20 h in data set [2] (Phosphate 10 mM pH 6.0) and 3.2 h in data set [2] (Phosphate 10 mM pH 7.4). The solubility in data set [3] was 6000 µg/mL (≈ 16.4 mM).

With `CC1(OC(=O)C(F)(F)ON2C(=O)N3C[C@H]2CC[C@H]3C(N)=O)CCOCC1` [Example 8, (4-methyltetrahydropyran-4-yl) 2-[[(2S,5R)-2-carbamoyl-7-oxo-1,6-diazabicyclo[3.2.1]octan-6-yl]oxy]-2,2-difluoro-acetate], the “Hydrolysis at 4 μg/ml … (50% degradation time)” value in data set [1] (Citrate 10 mM pH 5.0) was more than 120 min; in data set [1] (Phosphate 10 mM pH 7.4), 39 min. Further, the half-life at 4 µg/ml in “in vitro” (dog) is 8 min; in the data set “in vitro” (human), 11 min; in “in vitro” (mouse), less than 1 min; in the data set “in vitro” (rat) it was less than 1 min. Further, the “Hydrolysis at 1 mg/ml … (10% degradation time)” value is 402 min in data set [2] (Citrate 10 mM pH 5.0), 162 min in data set [2] (Phosphate 10 mM pH 6.0) and 40 min in data set [2] (Phosphate 10 mM pH 7.4). For the same compound, the “Hydrolysis at 1 mg/ml … (50% degradation time)” value in data set [2] (Citrate 10 mM pH 5.0) is 43 h; in data set [2] (Phosphate 10 mM pH 6.0), 21 h; in data set [2] (Phosphate 10 mM pH 7.4), 4.5 h. In addition, the solubility in data set [3] stood at 1000 µg/mL (≈ 2.65 mM).

As to `COCC(COC)OC(=O)C(F)(F)ON1C(=O)N2C[C@H]1CC[C@H]2C(N)=O` [Example 13, [2-methoxy-1-(methoxymethyl)ethyl]2-[[(2S,5R)-2-carbamoyl-7-oxo-1,6-diazabicyclo[3.2.1]octan-6-yl]oxy]-2,2-difluoro-acetate], the “Hydrolysis at 4 μg/ml … (50% degradation time)” value in data set [1] (Citrate 10 mM pH 5.0), in data set [1] (Phosphate 10 mM pH 6.0) and in data set [1] (Phosphate 10 mM pH 7.4) was less than 1 min each time. Moreover, in data set [2] (Citrate 10 mM pH 5.0), the “Hydrolysis at 1 mg/ml … (10% degradation time)” value turned out to be 8 min. The “Hydrolysis at 1 mg/ml … (50% degradation time)” value in data set [2] (Citrate 10 mM pH 5.0) stood at 0.933 h. Moreover, the solubility in data set [3] was more than 1000 µg/mL.

On to `COCCCC(C)(C)OC(=O)C(F)(F)ON1C(=O)N2C[C@H]1CC[C@H]2C(N)=O` [Example 14, (4-methoxy-1,1-dimethyl-butyl) 2-[[(2S,5R)-2-carbamoyl-7-oxo-1,6-diazabicyclo[3.2.1]octan-6-yl]oxy]-2,2-difluoro-acetate], for which the “Hydrolysis at 4 μg/ml … (50% degradation time)” value in data set [1] (Citrate 10 mM pH 5.0), in data set [1] (Phosphate 10 mM pH 6.0) and in data set [1] (Phosphate 10 mM pH 7.4) was less than 5 min throughout. The results for the “Hydrolysis at 1 mg/ml … (10% degradation time)” value in data set [2] (Citrate 10 mM pH 5.0), in data set [2] (Phosphate 10 mM pH 6.0) and in data set [2] (Phosphate 10 mM pH 7.4) were 5 min, less than 25 min and 7 min, respectively. Further, the “Hydrolysis at 1 mg/ml … (50% degradation time)” value in data set [2] (Citrate 10 mM pH 5.0) was 0.45 h; in data set [2] (Phosphate 10 mM pH 6.0), less than 2 h; in data set [2] (Phosphate 10 mM pH 7.4) it was 0.567 h. This compound also displayed a solubility in data set [3] of 5100 µg/mL (≈ 13 mM).

Consider `CCCN(CCC)[C@H]1CC[C@H](OC(=O)C(F)(F)ON2C(=O)N3C[C@H]2CC[C@H]3C(N)=O)CC1` [Example 15, [4-(dipropylamino)cyclohexyl]2-[[(2S,5R)-2-carbamoyl-7-oxo-1,6-diazabicyclo[3.2.1]octan-6-yl]oxy]-2,2-difluoro-acetate], for which the “Hydrolysis at 4 μg/ml … (50% degradation time)” value in data set [1] (Citrate 10 mM pH 5.0), in data set [1] (Phosphate 10 mM pH 6.0) and in data set [1] (Phosphate 10 mM pH 7.4) was less than 1 min in each case. Also, the “Hydrolysis at 1 mg/ml … (10% degradation time)” value in data set [2] (Citrate 10 mM pH 5.0) amounted to 7 min. Also, the “Hydrolysis at 1 mg/ml … (50% degradation time)” value in data set [2] (Citrate 10 mM pH 5.0) is 0.567 h. The same compound showed a solubility in data set [3] of more than 1000 µg/mL.
